Experimental data published in patent US20210292710A1, “METHOD FOR ENHANCING IMMUNE FUNCTION OF IMMUNE CELL AND IMMUNE CELL LINE PRODUCED USING THE SAME” (INDUSTRY-ACADEMIC COOPERATION FOUNDATION, YONSEI UNIVERSITY, priority 2020, published 2021).

Assays:
[1] = tested on: lung-cancer cell line KLN205; assay: Percentage of immune cells relative to lung-cancer cell line KLN205; format: in vivo
From the text: Referring to FIG. 10B, the percentage of immune cells relative to the lung-cancer cell line KLN205 due to PI3K inhibitor treatment is shown. Referring first to FIG. 10B (a), the percentage of CD3+ CD8+ T cells relative to the lung-cancer cell line KLN205 due to PI3K inhibitor treatment is shown. Next, referring to (b) of FIG. 10B, the percentage of CD3+ CD4+ CD25+ Foxp3 T cells relative to lung-cancer cell line KLN205 due to PI3K inhibitor treatment is shown. Next, referring to (c) of FIG. 10B, the percentage of CD3+ TIL cells relative to the lung-cancer cell line KLN205 due to PI3K inhibitor treatment is shown. Next, referring to (d) of FIG. 10B, the percentage of MDSC cells relative to lung-cancer cell line KLN205 due to PI3K inhibitor treatment is shown.

GLUT1 [2] = assay: GLUT1 expression in T cell based on type of PI3K inhibitor
From the text: More specifically, referring to (a) of FIG. 12, the results of GLUT1 expression according to the type of PI3K inhibitor in the helper T cell are shown. In this connection, the PI3K inhibitor may include BKM 120 that may inhibit all subtypes, CAL-101 that may inhibit only p110δ, IPI-145 capable of inhibiting p110γ and P110δ, BYLT719 capable of inhibiting only p110α, and TGX-211 capable of inhibiting only p110β.
Referring to (b) of FIG. 12, the results of GLUT1 expression according to the type of PI3K inhibitor in cytotoxic T cells are shown.

GLUT1 [3] = assay: GLUT1 protein expression level of T cell; format: cell-based, mouse; conditions: CD3+ T cells activated 72 hours with anti-CD3 and anti-CD28 beads
Experimental: Thus, referring to FIG. 4B, the results of mRNA expression of enzymes involved in glycolysis of T cells due to PI3K inhibitor treatment are shown. In this connection, in order to identify enzymes involved in glycolysis of T cells due to PI3K inhibitor treatment, the CD3+ T cells obtained in FIG. 2 are used. Furthermore, the obtained CD3+ T cell is activated for 72 hours using anti-CD3 and anti-CD28 beads to identify mRNA expression of enzymes involved in glycolysis. In this connection, CD3 secretes cytokine as a protein immunomodulator, and CD28 inhibits apoptosis. Only CD3-activated T cells may lead to apoptosis. Therefore, both CD3 and CD28 signals are used to increase T cell function and survival. Furthermore, referring to FIG. 5A, the result of GLUT1 protein expression level of T cell due to PI3K inhibitor treatment is shown. In this connection, T cell is treated in the same method as in FIG. 4B.

[4] = tested on: lung-cancer cell line LLC2; assay: Percentage of immune cells relative to lung-cancer cell line LLC2; format: in vivo
From the text: Referring to FIG. 9B, the percentage of immune cells relative to the lung-cancer cell line LLC2 due to PI3K inhibitor treatment is shown. Referring first to FIG. 9B (a), the percentage of CD3+ CD8+ T cells relative to LLC2 as a lung-cancer cell line due to PI3K inhibitor treatment is shown. In this connection, CD3+ CD8+ T cells may refer to cytotoxic T cells (Tc cells) capable of destroying damaged cells, infected cells, and tumor cells. Next, referring to (b) of FIG. 9B, the percentage of CD3+ CD4+ CD25+ Foxp3 T cells relative to LLC2 as a lung-cancer cell line due to the PI3K inhibitor treatment is shown. In this connection, the CD3+ CD4+ CD25+ Foxp3 T cells refer to regulatory T cells (Treg) that may maintain immuno-tolerance and autoimmunity, that is, may inhibit the immune response of other cells. Next, referring to (c) of FIG. 9B, the percentage of CD3+ TIL cells relative to LLC2 as a lung-cancer cell line due to the PI3K inhibitor treatment is shown. In this connection, CD3+ TIL cell may refer to a tumor infiltrating lymphocyte (TIL) that infiltrates a tumor cell cluster, thereby enhancing the T cell's tumor killing ability, that is, an anti-cancer effect of the T cell. Next, referring to (d) of FIG. 9B, the percentage of MDSC cells relative to the lung-cancer cell line LLC2 due to the PI3K inhibitor treatment is shown. In this connection, the MDSC cell may refer to immature myeloid cells which inhibit the immune response of immune cells such as T cells and NK cells, and induce the generation of regulatory T cells (Treg), thereby to promote the growth of cancer cells.

AKT = AKT expression in T cells due to PI3K inhibitor and mTORC1 inhibitor treatment; format: cell-based; conditions: RAD001 as mTORC1 inhibitor, p<0.05
From the text: Furthermore, referring to FIG. 8, AKT and GLUT1 expression levels in T cells due to PI3K inhibitor and mTORC1 inhibitor treatment are shown. In this connection, RAD001 is used as a mTORC1 inhibitor. First, referring to (a) of FIG. 8, AKT expression levels in T cells due to PI3K inhibitor and mTORC1 inhibitor treatment are shown. […] This may mean that when mTORC1 is inhibited, AKT expression is reduced, and thus mTORC1 is an important signal capable of rebounding AKT expression.

[5] = tested on: lung-cancer cell line LLC2; assay: Anti-cancer effect (tumor size) in lung-cancer cell line LLC2; format: in vivo
Experimental: First, referring to FIG. 9A, the results of the anti-cancer effect in the lung-cancer cell line LLC2 due to PI3K inhibitor treatment are shown. […] However, when the PI3K inhibitor treatment is carried out, the tumor size is reduced compared to the control. More specifically, when the PI3K inhibitor BKM 120 treatment is carried out at 35 mpk, the tumor size on the 15th day is 300 to 350 mm^3. When BKM 120 treatment is carried out at 50 mpk, the tumor size on day 15 is found to be 90 to 100 mm^3.

## Nc1cc(C(F)(F)F)c(-c2cc(N3CCOCC3)nc(N3CCOCC3)n2)cn1 [BKM 120, buparlisib]
[1]; 35 mpk
  average percentage of CD3+ CD4+ CD25+ Foxp3 T cells: 17%
  average percentage of CD3+ CD8+ T cells: 39%
  average percentage of MDSC cells: 24%
  distribution of the percentage of CD3+ CD4+ CD25+ Foxp3 T cells: 13 to 24%
  distribution of the percentage of CD3+ CD8+ T cells: 35 to 49%
  distribution of the percentage of MDSC cells: 23 to 25%
  percentage of CD3+ TIL cells on average: 5%
[1]; 50 mpk
  average percentage of CD3+ CD4+ CD25+ Foxp3 T cells: 15%
  average percentage of CD3+ CD8+ T cells: 41%
  average percentage of MDSC cells: 18%
  distribution of the percentage of CD3+ CD4+ CD25+ Foxp3 T cells: 12 to 17%
  distribution of the percentage of CD3+ CD8+ T cells: 32 to 50%
  distribution of the percentage of MDSC cells: 17 to 19%
  percentage of CD3+ TIL cells on average: 6%
GLUT1 [2]; cytotoxic T cells
  GLUT1 expression level versus BYLT719 and TGX-211 inhibitors: higher GLUT1 expression levels
GLUT1 [2]; helper T cell
  GLUT1 expression level versus BYLT719 and TGX-211 inhibitors: higher GLUT1 expression levels
GLUT1 [3]
  GLUT1 expression level relative to control: 6 to 7 times
  percentage of T cells expressing GLUT1 among all T cells: 60 to 70%
[4]; 35 mpk
  average percentage of CD3+ CD4+ CD25+ Foxp3 T cells (Treg): 17%
  average percentage of CD3+ CD8+ T cells: 38%
  average percentage of MDSC cells: 32%
  distribution of percentage of CD3+ CD4+ CD25+ Foxp3 T cells (Treg): 16 to 19%
  distribution of percentages of CD3+ CD8+ T cells: 35 to 42%
  distribution of the percentage of MDSC cells: 31 to 33%
  percentage of CD3+ TIL cells on average: 0.4%
[4]; 50 mpk
  average percentage of CD3+ CD4+ CD25+ Foxp3 T cells (Treg): 15%
  average percentage of CD3+ CD8+ T cells: 42%
  average percentage of MDSC cells: 24%
  distribution of percentage of CD3+ CD4+ CD25+ Foxp3 T cells (Treg): 13 to 17%
  distribution of percentages of CD3+ CD8+ T cells: 37 to 50%
  distribution of the percentage of MDSC cells: 22 to 26%
  percentage of CD3+ TIL cells on average: 0.9%
AKT
  AKT expression in iPI3K+/imTOR− group relative to iPI3K−/imTOR−, iPI3K−/imTOR+ and iPI3K+/imTOR+ groups: 1.5 to 2.3 times
[5]; 35 mpk, 15th day
  tumor size: 300 to 350 mm^3
[5]; 50 mpk, day 15
  tumor size: 90 to 100 mm^3
